One molecule from US20240182893A1, “INHIBITION OF FGR REDUCES FIBROSIS” (UNIVERSITY OF PITTSBURGH-OF THE COMMONWEALTH SYSTEM OF …, priority 2021, published 2024) can be followed below.

The test system of experiment [1] is target cell line (bottom layer). Briefly: Non-contact transwell coculture with sorted senescent cells from irradiated mouse lungs, profibrotic genes in target cell line. The following applies: FIG. 14. Format: cell-based. From the text: FIG. 14. Upregulation of profibrotic genes in target cells by irradiated mouse lung senescent cells. In a noncontact transwell co-culture system, filter separated (19) sorted irradiated red and irradiated non-red mouse lung cells plated on top layer, there is significant induction of Tgf-β. Collagen 1a1 and collagen 3 in target cell line (bottom layer).
To establish that irradiated tdTOMp16+ senescent cells induce profibrotic genes in other cells, a C57BL/6 target cell line and a noncontact transwell co-culture system were used (Ejaz A et al. Stem Cells. 2019, 37, 791-802) (FIG. 14). Using the tdTOMp16+ stromal cell line, significant induction by RIS red cells of collagen 1al, collagen 3, and TGF-β in C57/B6 target cells was observed. The induction was abrogated by the Fgr inhibitor TL02-59 (Mukherjee A et al. Cell Death Discovery, 2021, 7, 349). It was confirmed that the findings in stromal cells also occur in lung. Red and non-red cells from 20 Gy irradiated tdTOMp16 mouse lungs were tested.

Another experiment concerns gfp+ bone marrow cells. Description: Transwell cell migration assay, gfp+ bone marrow cells towards senescent cells (3-micron filter). Format: cell-based, mouse. The following applies: TL02-59 10 nM, 48 h, FIG. 45A, C, D. How it is done: FIG. 45A-FIG. 45F. […] FIG. 45A—The tdTOMp16+ cells either irradiated or non-irradiated were sorted by FACS for either tdTOM+ or tdTOM− cells, and each population was placed in the bottom chamber of each culture, well separated by a 3-micron filter. Gfp+ bone marrow cells were placed on the top chamber of each well and migration assay was carried out (3-micron membrane). The Fgr inhibitor TL02-59 (10 nM) (Shen K et al. Sci Signal 11(553): eaat5916, 2018) or RS 504393 (10 μM), a Ccl2 inhibitor, which is a CCR2 chemokine receptor antagonist, was added to cultures 24 h later. The migration of gfp+ bone marrow cells from the top chamber through the 3-micron filter to the bottom chamber was imaged and total gfp+ cells were counted. FIG. 45B—Image of gfp+ migrating cells through the filter at 24 h for each condition (×100). At 48 h, emigrated gfp+ cells in the bottom well were counted by FACS. After 48 h, migrating total. (FIG. 45C) gfp+ cells, and (FIG. 45D) gfp+ CD45+ cells were counted by FACS. […] Cell migration from the top wells to the bottom wells was evaluated by imaging and by (FIG. 45F) FACS analysis. (n=3, ****p=0.0001). p-Values were calculated by the t-test.
In vitro transwell experiments. […] The migration of gfp+ cells through the filter to the bottom compartment was measured by imaging the bottom wells and counting gfp+ cells relative to numbers of senescent TOM+ (red) cells. […]

Each structure is given as a SMILES string. “Also recorded” adds a separate entry of the source.

For the molecule `CCN1CCN(Cc2ccc(NC(=O)c3ccc(C)c(Oc4ncnc5cc(OC)c(OC)cc45)c3)cc2C(F)(F)F)CC1` [TL02-59], in experiment [1] (TL02-59 10 nM), the “induction of Tgf-β, Collagen 1a1 and collagen 3 in target cells by irradiated mouse lung senescent cells” value was “can block senescent cell induction of these genes”. The “induction of collagen 3 by RIS red lung cells” value in experiment [1] (cells from 20 Gy irradiated tdTOMp16 mouse lungs) is “reduced the induction of collagen 3”. Further, the “migration of gfp+ monocyte/macrophages towards senescent cells from irradiated tdTOMp16+ stromal cell line” value with gfp+ bone marrow cells is on record as “abrogated monocyte/macrophages recruitment; also recorded: significantly reduced the migration; also recorded: inhibited; also recorded: prevents migration”.
